Assay results taken from US6613718B2, “Aryl ether derivatives and processes for their preparation and herbicidal and desiccant compositions containing them” (Ishihara Sangyo Kaisha, Ltd., priority 2001, dated 2003).

Experiments:
Assay type in all cases: in vivo
[1] = test system: johnsongrass (Sorghum halepense, SORHA); experiment: Post-emerge greenhouse herbicide activity screening, phytotoxicity rating; settings: 14 days after application
Text: (§1) A standard greenhouse herbicide activity screening system was used to evaluate the herbicidal efficacy and crop safety of these test compounds. Seven broadleaf weed species including redroot pigweed (Amaranthus retroflexus, AMARE), velvetleaf (Abutilon theophrasti, ABUTH), sicklepod (Cassia obtusifolia, CASOB), ivyleaf morningglory (Ipomoea hederacea, IPOHE), lambsquarters (Chenopodium album, CHEAL), common ragweed (Ambrosia artemisiifolia L., AMBEL), and cocklebur (Xanthium strumarium, XANST) were used as test species. Four grass weed species including green foxtail (Setaria viridis, SETVI), barnyardgrass (Echinochloa crus-galli, ECHCG), johnsongrass (Sorghum halepense, SORHA), and large crabgrass (Digitaria sanguinalis, DIGSA) were also used. In addition, three crop species, field corn (Zea mays L., var. Dekalb 535, CORN), soybean (Glycine max L., var. Pella 86, SOY), and upland rice (Oryza sp., var.Tebonnet, RICE) were included.
(§2) All plants were grown in 10 cm square plastic pots which were filled with a sandy loam soil mix. For pre-emerge tests, seeds were planted one day prior to application of the test compounds. For post-emerge tests, seeds were planted 8-21 days prior to the test to allow emergence and good foliage development prior to application of the test substances. At the time of the post-emerge application, plants of all species were usually at the 2-3 leaf stage of development.
(§3) All test compounds were dissolved in acetone and applied to the test units in a volume of 187 1/ha. Test materials were applied at rates ranging from 15 g ai/ha to 1000 g ai/ha using a track sprayer equipped with a TJ8001E even flow flat fan spray nozzle. Plants were arranged on a shelf so that the top of the canopy (post-emerge) or top of the soil surface (pre-emerge) was 40-45 cm below the nozzle. Pressurized air was used to force the test solution through the nozzle as it was mechanically advanced (via electrically driven chain drive) over the top of all test plants/pots. This application simulates a typical commercial field herbicide application.
(§4) In the post-emerge test, a commercial non-ionic surfactant was also included (0.25% v/v) to enhance wetting of the leaf surfaces of target plants. Immediately after application, test units of the pre-emerge applications were watered at the soil surface to incorporate the test materials. Subsequently, these test units were bottom-watered. Post-emerge test units were always bottom-watered.
(§5) At 14 days after application of the test materials, phytotoxicity ratings were recorded. A rating scale of 0-100 was used as previously described in Research Methods in Weed Science, 2nd edition, B. Truelove, Ed., Southern Weed Science Society, Auburn University, Auburn, Ala., 1977. Briefly, “0” corresponds to no damage and “100” corresponds to complete death of all plants in the test unit. This scale was used both to determine efficacy against weed species and damage to crop species. Herbicide activity data for various compounds of this invention, which are shown by compound No. in Tables I-VI, are shown in Tables VIII-IX.

[2] = test system: common ragweed (Ambrosia artemisiifolia L., AMBEL); experiment: as above
Text: as §1, §2, §3, §4, §5

[3] = test system: ivyleaf morningglory (Ipomoea hederacea, IPOHE); experiment: as above; settings: 14 days after application
Text: as §1, §2, §3, §4, §5

[4] = test system: lambsquarters (Chenopodium album, CHEAL); experiment: as above
Text: as §1, §2, §3, §4, §5

[5] = test system: green foxtail (Setaria viridis, SETVI); experiment: as above
Text: as §1, §2, §3, §4, §5

[6] = test system: large crabgrass (Digitaria sanguinalis, DIGSA); experiment: as above; settings: 14 days after application
Text: as §1, §2, §3, §4, §5

[7] = test system: barnyardgrass (Echinochloa crus-galli, ECHCG); experiment: as above; settings: 14 days after application
Text: as §1, §2, §3, §4, §5

[8] = test system: redroot pigweed (Amaranthus retroflexus, AMARE); experiment: as above
Text: as §1, §2, §3, §4, §5

[9] = test system: velvetleaf (Abutilon theophrasti, ABUTH); experiment: as above; settings: 14 days after application
Text: as §1, §2, §3, §4, §5

[10] = test system: sicklepod (Cassia obtusifolia, CASOB); experiment: as above
Text: as §1, §2, §3, §4, §5

[11] = test system: upland rice (Oryza sp., var.Tebonnet, RICE); experiment: Post-emerge greenhouse screening, crop safety (phytotoxicity rating); settings: 14 days after application
Text: as §1, §2, §3, §4, §5

[12] = test system: soybean (Glycine max L., var. Pella 86, SOY); experiment: as above; settings: 14 days after application
Text: as §1, §2, §3, §4, §5

[13] = test system: upland rice (Oryza sp., var.Tebonnet, RICE); experiment: Pre-emerge greenhouse screening, crop safety (phytotoxicity rating); settings: 14 days after application
Text: as §1, §2, §3, §4, §5

[14] = test system: soybean (Glycine max L., var. Pella 86, SOY); experiment: as above; settings: 14 days after application
Text: as §1, §2, §3, §4, §5

[15] = test system: field corn (Zea mays L., var. Dekalb 535, CORN); experiment: as above; settings: 14 days after application
Text: as §1, §2, §3, §4, §5

[16] = test system: field corn (Zea mays L., var. Dekalb 535, CORN); experiment: Post-emerge greenhouse screening, crop safety / corn selectivity (phytotoxicity rating); settings: 14 days after application
Text: as §1, §2, §3, §4, §5

[17] = test system: johnsongrass (Sorghum halepense, SORHA); experiment: Pre-emerge greenhouse herbicide activity screening, phytotoxicity rating; settings: 14 days after application
Text: as §1, §2, §3, §4, §5

[18] = test system: common ragweed (Ambrosia artemisiifolia L., AMBEL); experiment: as above; settings: 14 days after application
Text: as §1, §2, §3, §4, §5

[19] = test system: ivyleaf morningglory (Ipomoea hederacea, IPOHE); experiment: as above; settings: 14 days after application
Text: as §1, §2, §3, §4, §5

[20] = test system: lambsquarters (Chenopodium album, CHEAL); experiment: as above; settings: 14 days after application
Text: as §1, §2, §3, §4, §5

[21] = test system: green foxtail (Setaria viridis, SETVI); experiment: as above; settings: 14 days after application
Text: as §1, §2, §3, §4, §5

[22] = test system: large crabgrass (Digitaria sanguinalis, DIGSA); experiment: as above; settings: 14 days after application
Text: as §1, §2, §3, §4, §5

[23] = test system: barnyardgrass (Echinochloa crus-galli, ECHCG); experiment: as above; settings: 14 days after application
Text: as §1, §2, §3, §4, §5

[24] = test system: redroot pigweed (Amaranthus retroflexus, AMARE); experiment: as above; settings: 14 days after application
Text: as §1, §2, §3, §4, §5

[25] = test system: velvetleaf (Abutilon theophrasti, ABUTH); experiment: as above; settings: 14 days after application
Text: as §1, §2, §3, §4, §5

[26] = test system: sicklepod (Cassia obtusifolia, CASOB); experiment: as above; settings: 14 days after application
Text: as §1, §2, §3, §4, §5

[27] = 125 g ai/ha, 14 days after application
[28] = 250 g ai/ha, 14 days after application

`Cn1c(C(F)(F)F)cc(=O)n(-c2cc(Oc3ccccc3N)c(Cl)cc2F)c1=S` [Compound 1-48] was tested, and the “SORHA phytotoxicity rating (0-100 scale)” value ([1]; 125 g ai/ha) was 0, the “SORHA phytotoxicity rating (0-100 scale)” value ([1]; 250 g ai/ha) was 0 and the “AMBEL phytotoxicity rating (0-100 scale)” value ([2]; 31.3 g ai/ha) was 60. For the same compound, the “AMBEL phytotoxicity rating (0-100 scale)” value ([2]; 62.5 g ai/ha) was 50, the “AMBEL phytotoxicity rating (0-100 scale)” value [2, 27] was 60 and the “AMBEL phytotoxicity rating (0-100 scale)” value [2, 28] was 75. The “IPOHE phytotoxicity rating (0-100 scale)” value ([3]; 125 g ai/ha) was 80, the “IPOHE phytotoxicity rating (0-100 scale)” value ([3]; 250 g ai/ha) was 75 and the “CHEAL phytotoxicity rating (0-100 scale)” value ([4]; 31.3 g ai/ha) was 80. The “CHEAL phytotoxicity rating (0-100 scale)” value ([4]; 62.5 g ai/ha) was 99, the “CHEAL phytotoxicity rating (0-100 scale)” value [4, 27] was 100 and the “CHEAL phytotoxicity rating (0-100 scale)” value [4, 28] was 100. For the same compound, the “SETVI phytotoxicity rating (0-100 scale)” value ([5]; 31.3 g ai/ha) was 0, the “SETVI phytotoxicity rating (0-100 scale)” value ([5]; 62.5 g ai/ha) was 30 and the “SETVI phytotoxicity rating (0-100 scale)” value [5, 27] was 50. For the same compound, the “SETVI phytotoxicity rating (0-100 scale)” value [5, 28] was 60, the “DIGSA phytotoxicity rating (0-100 scale)” value ([6]; 125 g ai/ha) was 25 and the “DIGSA phytotoxicity rating (0-100 scale)” value ([6]; 250 g ai/ha) was 50. For the same compound, the “ECHCG phytotoxicity rating (0-100 scale)” value ([7]; 125 g ai/ha) was 0, the “ECHCG phytotoxicity rating (0-100 scale)” value ([7]; 250 g ai/ha) was 0 and the “AMARE phytotoxicity rating (0-100 scale)” value ([8]; 31.3 g ai/ha) was 100. For the same compound, the “AMARE phytotoxicity rating (0-100 scale)” value ([8]; 62.5 g ai/ha) was 100, the “AMARE phytotoxicity rating (0-100 scale)” value [8, 27] was 100 and the “AMARE phytotoxicity rating (0-100 scale)” value [8, 28] was 100. The “ABUTH phytotoxicity rating (0-100 scale)” value ([9]; 125 g ai/ha) was 85, the “ABUTH phytotoxicity rating (0-100 scale)” value ([9]; 250 g ai/ha) was 95 and the “CASOB phytotoxicity rating (0-100 scale)” value ([10]; 31.3 g ai/ha) was 50. For the same compound, the “CASOB phytotoxicity rating (0-100 scale)” value ([10]; 62.5 g ai/ha) was 75, the “CASOB phytotoxicity rating (0-100 scale)” value [10, 27] was 75 and the “CASOB phytotoxicity rating (0-100 scale)” value [10, 28] was 75. For the same compound, the “RICE crop damage, phytotoxicity rating (0-100 scale)” value (shortened to “RICE crop damage”) ([11]; 125 g ai/ha) was 0, the “RICE crop damage” value ([11]; 250 g ai/ha) was 35 and the “SOY crop damage, phytotoxicity rating (0-100 scale)” value (“SOY crop damage” for short) ([12]; 125 g ai/ha) was 0. The “SOY crop damage” value ([12]; 250 g ai/ha) was 0, the “RICE crop damage” value ([13]; 125 g ai/ha) was 0 and the “RICE crop damage” value ([13]; 250 g ai/ha) was 8. For the same compound, the “SOY crop damage” value ([14]; 125 g ai/ha) was 0, the “SOY crop damage” value ([14]; 250 g ai/ha) was 0 and the “CORN crop damage, phytotoxicity rating (0-100 scale)” value (shortened to “CORN crop damage”) ([15]; 125 g ai/ha) was 0. The “CORN crop damage” value ([15]; 250 g ai/ha) was 5, the “CORN crop damage” value ([16]; 125 g ai/ha) was 0 and the “CORN crop damage” value ([16]; 250 g ai/ha) was 10. The “SORHA phytotoxicity rating (0-100 scale)” value ([17]; 125 g ai/ha) was 55, the “SORHA phytotoxicity rating (0-100 scale)” value ([17]; 250 g ai/ha) was 85 and the “AMBEL phytotoxicity rating (0-100 scale)” value ([18]; 125 g ai/ha) was 70. For the same compound, the “AMBEL phytotoxicity rating (0-100 scale)” value ([18]; 250 g ai/ha) was 70, the “IPOHE phytotoxicity rating (0-100 scale)” value ([19]; 125 g ai/ha) was 80 and the “IPOHE phytotoxicity rating (0-100 scale)” value ([19]; 250 g ai/ha) was 100. For the same compound, the “CHEAL phytotoxicity rating (0-100 scale)” value ([20]; 125 g ai/ha) was 100, the “CHEAL phytotoxicity rating (0-100 scale)” value ([20]; 250 g ai/ha) was 100 and the “SETVI phytotoxicity rating (0-100 scale)” value ([21]; 125 g ai/ha) was 90. The “SETVI phytotoxicity rating (0-100 scale)” value ([21]; 250 g ai/ha) was 99, the “DIGSA phytotoxicity rating (0-100 scale)” value ([22]; 125 g ai/ha) was 55 and the “DIGSA phytotoxicity rating (0-100 scale)” value ([22]; 250 g ai/ha) was 75. The “ECHCG phytotoxicity rating (0-100 scale)” value ([23]; 125 g ai/ha) was 80, the “ECHCG phytotoxicity rating (0-100 scale)” value ([23]; 250 g ai/ha) was 85 and the “AMARE phytotoxicity rating (0-100 scale)” value ([24]; 125 g ai/ha) was 100. The “AMARE phytotoxicity rating (0-100 scale)” value ([24]; 250 g ai/ha) was 100, the “ABUTH phytotoxicity rating (0-100 scale)” value ([25]; 125 g ai/ha) was 90 and the “ABUTH phytotoxicity rating (0-100 scale)” value ([25]; 250 g ai/ha) was 100. The “CASOB phytotoxicity rating (0-100 scale)” value ([26]; 125 g ai/ha) was 0 and the “CASOB phytotoxicity rating (0-100 scale)” value ([26]; 250 g ai/ha) was 0.
